pIC50: −log10 of the molar value.
What was measured:
[1] = molecular target: T1, recombinant HIV-1 capsid protein (CA) (Human immunodeficiency virus type 1 group M subtype B, UniProt P12493); test: Turbidity based HIV-1 capsid assembly assay; type: biochemical; details: initial assembly rate by turbidity; twofold dilutions over a 128 fold range; 30 μM CA, 2.25 M NaCl
T1 construct: recombinant HIV-1 capsid protein (CA); made in house
Description: The kinetics can be followed by monitoring the increase of turbidity using a spectrophotometer. The IC50 of the chemical compound tested is determined by titration. As the C-domain inhibits capsid assembly by forming CA-C-domain heterodimers, the effect of added C-terminal domain on the rate of assembly was evaluated by plotting the rate of assembly versus C-terminal domain concentration.
Soluble HIV-1 capsid protein can be triggered to assemble into tubes similar in diameter and morphology to intact cores by dilution into high iconic strength buffer. The kinetics of assembly can be followed by monitoring the increase in turbidity using a spectrophotometer (Lanham et al., J. Virol., 76:6900, 2002). This assembly assay was adapted to a 96-well, microplate format to allow for medium-throughput screening of compounds by measuring turbidity in a Nepeloskan Ascent plate reader (Thermo Electron Corp., UK). A DIVERSet™ library of 10,000 low molecular weight, “drug-like” compounds was purchased from ChemBridge Corp. (San Diego, Calif.). This library was selected for its potential bioavailability and application based on a pharmacophore diversity analysis. The average molecular weight of the compounds is 347 g/mol, the range being 200-596 g/mol. The compounds came plated in 96-well plates and solubilized in DMSO at 5 mgs/mL.
Turbidity based assay. A 1.5 μL aliquot of compound was diluted 90-fold into 50 mM Na2HPO4, […] buffer, pH 8 in an optically clear 96-well plate. The plate containing compounds and salt was read to check for compound solubility and to serve as a background reading for the assay. To initiate the assembly reaction, 15 μL of […] stock (in 50 mM Na2HPO4 pH 8) of recombinant HIV-1 capsid protein (CA), purified as described (Lanman et al., J. Virol., 76:6900, 2002), was added to each well of the 96-well plate using a multi-channel pipettor. […] Furthermore, the halftime of the assembly reaction is ˜5 minutes so reading the plate in thirds prevented loss of initial rate data. Therefore, CA was added to the first 4 lanes, the reactions followed for ten minutes, reading was paused, CA was then added to the next four lanes and the process repeated. Instrument settings are as follows: PMT gain of 500 V, lamp at 10V, and integration time of 60 ms. The data were exported to a custom designed Excel spreadsheet that allowed simultaneous plotting of kinetic curves.
Recombinant CA protein was purified as previously described and stored at 300 μM at −80° C. A turbidity based assembly assay, described above, was adapted to a 96-well, microplate format to allow for medium-throughput screening of compounds in a Nepheloskan Ascent plate reader (Thermo Electron Corp., UK). A 1.5 μL aliquot of compound or DMSO was diluted 90-fold into 50 mM Na2HPO4, 2.25 M NaCl buffer, pH 8 in an optically clear 96-well plate. To initiate the assembly reaction, 15 μL of the 300 μM stock (in 50 mM Na2HPO4 pH 8) of recombinant HIV-1 capsid protein (CA), was added to each well of the 96-well plate using a multi-channel pipettor.

Luc-M7 cells = test: Cell viability of Luc-M7 cells (Cell-Titer Glo); type: cell-based; set-up: unit: μM; details: mock-infected Luc-M7 cells, 6 days
Description: Anti-HIV Assays (Multiple Round). The inhibitory effects of the tested compounds on HIV-1YU2 replication were determined by the level of luciferase expression after 6 days of infection using Bright-Glo assay (Promega). An amount of 1.5×10^4 Luc-M7 (a gift from Ned Landau) cells per ml were infected with HIV-1YU2 at a multiplicity of infection (MOI) of 3. The HIV-1 infected ([…] compound) or mock-infected (0-300 μM compound) Luc-M7 cells were placed in 96-well culture plates (100 μl/well) with 100 μl of various concentrations of the compounds with 20 μg/ml DEAE Dextran in triplicate and incubated at 37° C. under 5% CO2 at 100% humidity. After 6 days, cell viability was quantified by Cell-Titer Glo assay (Promega). […] On day 5 cell viability was determined in the mock-infected cells. FIGS. 12-18 show the anti-HIV assays for the examples of chemical compounds used according to the invention. After in-vitro assay, the chemical compounds in FIGS. 12-18 were selected for screening for cell viability and toxicity. Jurkat cells assay was used as screening assay. […] After five days, GFP expression was read. Cell viability was monitored with Alamar Blue assay. Luc M7 assay was designed to measure inhibitory activity of the chemical compounds to viral replication. After infection of cells with YU2 virus, plate cells in 96-well plate in the presence of six concentration of compounds in DMSO. At day 6, the number of cells in wells were read with Cell Titer Glo kit or by counting the number of cells infected with Bright Glo kit. 293T cells assay was designed to determine the toxicity. 293T cells were transfected with NL43. After four hours, transfected cells were plated in 96-well plate in DMSO and 2 μM Indinavir. 72 hours later, viral supernatant was collected and plated on J[…].

Compound: Cc1ncc(C[n+]2csc(CCOC(=O)C3C4CC5CC(C4)CC3C5)c2C)c(N)n1.Cl.[Cl-] (centres unmarked) [Compound 26]
- pIC50 [1]: 4.55
- TC50 (Luc-M7 cells): 70.4
